This is an account of results in US20170058349A1, “METHODS FOR MANAGING CARE OF PATIENTS PREDISPOSED TO PROGRESSIVE MITRAL VALVE DISEASES” (The Children's Hospital of Philadelphia, priority 2014, published 2017).

One experiment deals with human MVICs. As to the kind of experiment: MVIC activation in vitro (SMA expression after 5HT stimulation). Type of experiment: cell-based. Particulars: for VIC activation associated with 5HTR activation: human MVICs in vitro, antagonists of 5HTR2A, 2B and SERT; for SMA expression on 5HT stimulation: 5HT 10 nM. As for the experimental part:
MVICs isolated from healthy controls and patients with LL, LS, SS gene polymorphisms were treated with […] 5HT for 6 days in the presence or absence of a combination of 5HT2A antagonist Ketanserin, 5HT2B antagonist SDZ, and SERT antagonist Fluoxetine. RNA was isolated and tested for SMA expression as a marker of MVIC activation.
MVICs were isolated form patients with LL, LS, or SS genotype and controls (N=5/group) and exposed to 5HT stimulation (10 nM) to measure MVICs activation by alpha smooth muscle actin (SMA) as previously described by Rachana et al. (Journal of cellular physiology 227(6): 2595-604, November 2011. PMCID: PMC3288540) and Poggio et al. (Cardiovascular research 98(3): 402-10, June 2013. PMCID: PMC3656614). A combination of 5HT2A, 2B and SERT antagonists was used to inhibit 5HT stimulation in the three different genotypes (LL, LS, SS) with 10 μM ketanserin, 1 μM SDZ SER-082, and 1 μM Fluoxitine. (FIG. 4). RNA extract was collected to detect SMA expression.

The next experiment relates to C57BL/6J mice. The experiment is described as follows: Chronic angiotensin II infusion, remodeling of the mitral valve tissue in mice. The class given is in vivo. Particulars: 28 days chronic infusion; for ECM remodeling of MV leaflets / 5HTR2A, 5HTR2B and SERT expression in MV leaflets: AngII vs. saline; for ECM remodeling of MV leaflets: histology; for 5HTR2A, 5HTR2B and SERT expression in MV leaflets: immunohistochemistry. The source says:
(A) Representative H&E staining of cross section of mice hearts harvested 28 days after saline or AngII chronic infusion. (B) Modified Movat Pentachrome staining of MV leaflets harvested 28 days after saline or AngII chronic infusion (Magnification 10× and 43×). (C) and (D) Immunohistochemistry staining of murine MV leaflets using anti-5HTR2A and anti-5HTR2B antibodies, respectively.
We have recently reported that reactive oxygen species (ROS) accumulation is leading aortic VICs activation ex vivo and in vitro with results showing that adenoviral delivery of antioxidant enzymes ameliorates aortic VICs activation. We therefore used our murine model based on chronic AngII infusion to reproduce ROS accumulation in the cardiac tissue (Branchetti et al., Cardiovasc Res. 2013; 100(2):316-324) to test whether we could provoke MV remodeling.

With `CNCCC(Oc1ccc(C(F)(F)F)cc1)c1ccccc1` (stereo not shown) [Fluoxetine], in the experiment with human MVICs, the “VIC activation associated with 5HTR activation” value was “partially abrogate this effect”.
The same measure, in the same setting: the entry for `CN1CC[C@@H]2CN3CCc4cccc(c43)[C@@H]2C1` [SDZ, SDZ SER-082] is “partially abrogate this effect”.
On to `O=C(c1ccc(F)cc1)C1CCN(CCn2c(=O)[nH]c3ccccc3c2=O)CC1` [Ketanserin], for which the “VIC activation associated with 5HTR activation” value in the experiment with human MVICs is given as “partially abrogate this effect”.
Turning to `NCCc1c[nH]c2ccc(O)cc12` [5HT, serotonin], the “SMA expression on 5HT stimulation” value is reported as “significant upregulation of SMA” in the experiment with human MVICs (MVICs from patients with LL genotype); “not responsive” in the experiment on human MVICs (MVICs from patients with SS and LS genotype).
With “Angiotensin II (DRVYIHPF; Angiotensin-2; UniProt P11859 25-32, looked up) [AngII, chronically infused to induce ROS accumulation and MV remodeling in mice]”, the “mitral valve cusp thickness” value in the experiment with C57BL/6J mice (AngII treated vs. saline infused mice, p<0.01) is “increased”. Further, the figures for the “ECM remodeling of MV leaflets” value with C57BL/6J mice and in the experiment with C57BL/6J mice (listed as Angiotensin II) were “significant rearrangement of the ECM” and “ECM remodeling”, respectively. The “5HTR2A, 5HTR2B and SERT expression in MV leaflets” value in the experiment with C57BL/6J mice is “increased 5HTR2A and 2B and SERT”; in the experiment on C57BL/6J mice (listed as Angiotensin II), “increased 5HTR-2B/SERT expressions”.
